Numbered stars: 1 amine (or outer) side, 2 acyl side, 3 side chain; on linkers, the order of the positions; unused ones are H or OH. Square brackets hold non-standard residues; d marks the D form. Peptide text beside a SMILES is read from it. * marks the point of attachment. ξ: configuration not given here. Sta = CC(C)C[C@H](N)[C@@H](O)CC(=O)O; Isovaleryl = CC(C)CC(=O)*; ξR = N=C(N)NCCCC(N)C(=O)O; ξF = NC(Cc1ccccc1)C(=O)O; CO = O=C([*:1])[*:2]
What was measured:
Assay type in all cases: cell-based, human
[1] = test system: red blood cells from healthy individuals; test: Cytokine release from red blood cells of healthy individuals incubated with protease inhibitors (27-plex and 21-plex Bio-Plex); details: for effect on cytokine release from healthy red blood cells individually: individual inhibitors at Table 5 concentrations
Method: Blood samples from healthy volunteers were used to evaluate the effect of specific protease inhibitors on proteins from red blood cells. Whole blood was collected from healthy volunteers by venepuncture (n≥3) directly into EDTA vacutainers (k2EDTA vacutainers, BD Biosciences). The fractions of blood were collected and processed at room temperature within 4 hours of collection. For multiplex analysis (BioPlex analysis) the samples were stored at −80° C.
The red blood cells were isolated using dextran sedimentation as follows. Whole blood was centrifuged (1500 g, 10 minutes) and the upper plasma layer was discarded. The remaining cell pellet was resuspended in an equal volume of sodium chloride (0.15 M). Dextran (6% w/v in 0.15 M sodium chloride) was then added to this cellular suspension at a 1:4 ratio (dextran:cell suspension). The solution was left at room temperature for 30 minutes for red blood cell sedimentation to the bottom of the tube. The upper white blood cell rich layer was then discarded and the lower red blood cell fraction isolated. The red blood cell fraction was washed once in phosphate buffered saline (PBS, 500 g, 5 minutes) and the remaining red blood cell pellet was counted (Coulter Act Diff, Beckman Coulter). The red blood cells were then diluted to 400 million cells/mL in PBS and were incubated at 37° C. and 5% CO2 for 24 hours. Some samples were also incubated with the protease inhibitors indicated in Table 5 during the PBS incubation.
(§1) After incubation, the resulting conditioned PBS was isolated by centrifugation (500 g, 5 minutes) and then stored at −80° C. The conditioned PBS samples were then analysed on the multiplex cytokine assays. Two multiplex assays were utilised. The first was a 27-plex human cytokine panel that assays for FGF basic, Eotaxin, G-CSF, GM-CSF, IFN-γ, IL-1β, IL-1ra, IL-2, IL-4, IL-5, IL-6, IL-7, IL-8, IL-9, IL-10, IL-12(p70), IL-13, IL-15, IL-17, IP-10, MCP-1, MIP-1α, MIP-1β, PDGF-BB, RANTES, TNF-α, and VEGF, and the second was a 21-plex human cytokine panel that assays for IL-1α, IL-2Ra, IL-3, IL-12, IL-16, IL-18, CTACK, GRO-α, HGF, IFN-α2, LIF, MCP-3, M-CSF, MIF, MIG, β-NGF, SCF, SCGF-β, SDF-1α, TNF-β, TRAIL (Bio-Plex Pro 27-plex and 21-plex, Bio-Rad). The assays were performed according to manufacturer's instructions using an automated magnetic wash station (BioPlex Pro II, Bio-Rad) for the washing steps. The assays were run on the Luminex® 200™ system (Bio-Rad) and fluorescent values were collected. The calibration curve for each cytokine was analysed with 5 parametric logistic curve regression using BioPlex manager software (ver. 5.0, Bio-Rad, USA).
The fold change was determined for proteins in red blood cell-conditioned PBS at 400 million cells/mL following incubation at 37° C. for 24 hours with protease inhibitor cocktail or individual protease inhibitors from healthy participants. […] Significant differences (p<0.05) were determined using Student T-tests.
To determine the effect of a combination of protease inhibitors on the release of proteins from red blood cells, a protein profile was obtained from healthy red blood cells incubated with protease inhibitor cocktails. […] Healthy red blood cells were incubated with A8127s and the cOmplete protease inhibitor cocktail (Roche).

[2] = test system: red blood cells; test: Protein profile in red blood cell lysates using cationic salt (21-plex); details: PBS containing 100 mM LiCl vs PBS
Method: Red blood cells were isolated using dextran sedimentation as follows. Whole blood was centrifuged (1500 g, 10 minutes) and the upper plasma layer was discarded. The remaining cell pellet was resuspended in an equal volume of sodium chloride (0.15 M). Dextran (6% w/v in 0.15 M sodium chloride) was then added to this cellular suspension at a 1:4 ratio (dextran:cell suspension). This solution was left at room temperature for 30 minutes for red blood cell sedimentation to the bottom of the tube. After this time the upper white blood cell rich layer and the lower red blood cell fraction were separated and the white blood cells discarded. The lower red blood cell fraction was washed twice in phosphate buffered saline (PBS, 500 g, 5 minutes). The supernatant was discarded, and the red blood cell pellet resuspended in either PBS or PBS containing 100 mM LiCl.
The red blood cells were subjected to 3 freeze-thaw cycles to ensure complete cellular lysis. […] The red blood cell lysates were analysed on a 21-plex human cytokine panel that assays for IL-1α, IL-2Ra, IL-3, IL-12, IL-16, IL-18, CTACK, GRO-α, HGF, IFN-α2, LIF, MCP-3, M-CSF, MIF, MIG, β-NGF, SCF, SCGF-β, SDF-1α, TNF-β, TRAIL (Bio-Plex Pro 27-plex and 21-plex, Bio-Rad). […] The calibration curve for each cytokine was analysed with 5 parametric logistic curve regression using BioPlex manager software (ver. 5.0, Bio-Rad, USA).

[3] = test system: red blood cells from individuals having colorectal cancer; test: Cytokine release from red blood cells of individuals having colorectal cancer incubated with protease inhibitors (27-plex); details: colorectal cancer red blood cells vs no protease inhibitors
Method: Whole blood was collected from volunteers with by venepuncture directly into EDTA vacutainers (k2EDTA vacutainers, BD Biosciences). The fractions of blood were collected and processed at room temperature within 4 hours of collection. For multiplex analysis (BioPlex analysis) the samples were stored at −80° C. prior to analysis. The red blood cells were isolated using dextran sedimentation as follows. Whole blood was centrifuged (1500 g, 10 minutes) and the upper plasma layer was discarded. The remaining cell pellet was resuspended in an equal volume of sodium chloride (0.15 M). Dextran (6% w/v in 0.15 M sodium chloride) was then added to this cellular suspension at a 1:4 ratio (dextran:cell suspension). The solution was left at room temperature for 30 minutes for red blood cell sedimentation to the bottom of the tube. The upper white blood cell rich layer was discarded and the lower red blood cell fraction was isolated. The red blood cell fraction was washed once in phosphate buffered saline (PBS, 500 g, 5 minutes) and the remaining red blood cell pellet was counted (Coulter Act Diff, Beckman Coulter). The red blood cells were then diluted to 400 million cells/mL in PBS and incubated at 37° C. and 5% CO2 for 24 hours. Some samples were also incubated with the individual protease inhibitors in Table 5, a commercial protease inhibitor cocktail (cOmplete, Roche), or the A8127s protease inhibitor cocktail during the PBS incubation. The A8127s protease inhibitor cocktail comprised antipain-dihydrochloride (50 μg/mL); bestatin (40 μg/mL); E-64 (10 μg/mL); leupeptin (5 μg/mL); pepstatin (0.7 μg/mL); phosphoramidon (330 μg/mL); Pefabloc SC (1 mg/mL); EDTA-Na2 (0.5 mg/mL); and aprotinin (2 μg/mL).
as §1, with “minutes). The samples were” for “minutes) and then”, “on” for “on the multiplex cytokine assays. Two multiplex assays were utilised. The first was”, “VEGF” for “VEGF, and the second was a 21-plex human cytokine panel that assays for IL-1α, IL-2Ra, IL-3, IL-12, IL-16, IL-18, CTACK, GRO-α, HGF, IFN-α2, LIF, MCP-3, M-CSF, MIF, MIG, β-NGF, SCF, SCGF-β, SDF-1α, TNF-β, TRAIL”, “27-plex,” for “27-plex and 21-plex,”, “assay was” for “assays were”
Significant differences (p<0.05) were determined using Student T-tests. […]

[4] = healthy red blood cells, in words

## CC(C)C[C@H](NC(=O)[C@H]1O[C@@H]1C(=O)O)C(=O)NCCCCN=C(N)N [Sample ID 5, E-64]
[1]
  effect on cytokine release from healthy red blood cells individually: significant effect

## [Cl-].[Li+] [lithium chloride]
[2]
  level of several of the proteins in the assay (21-plex human cytokine panel): increased and/or enhanced

## Cl.NCCc1ccc(S(=O)(=O)F)cc1 [Sample ID 9, Pefabloc SC]
[1]
  effect on cytokine release from healthy red blood cells individually: significant effect
[3]
  concentration of IL-1β, IL-8, IL-9, TNF-α, IL-1ra, MCP-1, MIP-1α, G-CSF and IL-6: decreasing
  released concentration of IL-13 and IL-7: increased

## O=C([O-])CN(CCN(CC(=O)[O-])CC(=O)O)CC(=O)O.[Na+].[Na+] [Sample ID 10, EDTA-Na2]
[1]
  effect on cytokine release from healthy red blood cells individually: significant effect

## CC(C)C[C@H](NC(=O)[C@@H](O)[C@H](N)Cc1ccccc1)C(=O)O [Sample ID 4, Bestatin]
[1]; [4]
  concentration of HGF following red blood cell incubation: dramatically increased
  concentration of released IFN-a2, IL-18, MIF, TRAIL, HGF, and IL12-p40: alters
[1]
  effect on cytokine release from healthy red blood cells individually: significant effect

## CC(C)C[C@H](NP(=O)(O)O[C@@H]1O[C@@H](C)[C@H](O)[C@@H](O)[C@H]1O)C(=O)N[C@@H](Cc1c[nH]c2ccccc12)C(=O)O [Sample ID 8, Phosphoramidon]
[1]
  effect on cytokine release from healthy red blood cells individually: significant effect

## CC(C)[C@H](NC(=O)[C@H](CCCN=C(N)N)NC(=O)NC(Cc1ccccc1)C(=O)O)C(=O)NC(C=O)CCCN=C(N)N.Cl.Cl (stereo partly drawn) [Sample ID 3, Antipain-dihydrochloride] ({ξF-CO}-Arg-Val-[ξR]-aldehyde)
[1]
  effect on cytokine release from healthy red blood cells individually: significant effect
[3]
  concentration of IL-1β, IL-8, TNF-α, MIP-1α, G-CSF and IL-6: decreasing
  concentration of released IFN-γ, IL-12(p70), IL-15, IL-17, IL-13, IL-7, IP-10, PDGF-bb and IL-2: increased

## CC(C)CC(=O)N[C@H](C(=O)N[C@H](C(=O)N[C@@H](CC(C)C)[C@@H](O)CC(=O)N[C@@H](C)C(=O)N[C@@H](CC(C)C)[C@@H](O)CC(=O)O)C(C)C)C(C)C [Sample ID 7, Pepstatin] (Isovaleryl-VV[Sta]A[Sta]-OH)
[1]; [4]
  concentration of HGF following red blood cell incubation: significantly decreased
  effect on concentration of IFN-a2, MIF, and HGF: opposite effect of bestatin
[1]
  effect on cytokine release from healthy red blood cells individually: significant effect

## Aprotinin [Sample ID 11]
[1]
  effect on cytokine release from healthy red blood cells individually: significant effect

## CC(=O)N[C@@H](CC(C)C)C(=O)N[C@@H](CC(C)C)C(=O)N[C@H](C=O)CCCNC(=N)N [Sample ID 6, Leupeptin]
[1]
  effect on cytokine release from healthy red blood cells individually: significant effect

From patent publication US11693006B2, “Blood profiling with protease inhibitors” (Sangui Bio Pty. Ltd, priority 2016, dated 2023)
